{"source": "patent US8658167B2", "about": "“Methods and compositions for treatment and diagnosis of fibrosis, tumor invasion, angiogenesis, and metastasis” (Gilead Biologics, Inc., priority 2007, dated 2014)", "key": {"MDA-MB-231": {"tested_on": "MDA-MB-231", "test": "Drug sensitivity assays with LOX/LOXL inhibition (CellTiter Glo viability)", "assay_type": "cell-based, human", "procedure": "After 5 days of continuous exposure, cultures were rinsed and live cell number was determined using CellTiter Glo™ (Promega, San Luis Obispo, Calif.) according to manufacturer instructions. […] (FIGS. 36, 37, 38)\nFor siRNA drug sensitivity studies, cells were transiently transfected with […] LOX, LOXL2, or non-targeting Stealth Select™ RNAi validated oligos using the Dharmafect transfection reagent according to manufacturer instructions (Thermo Scientific, Lafayette, Colo.) 24 hrs prior to drug exposure. Knock down levels following drug exposure were verified with quantitative PCR. Stable shRNA cell lines were generated using the MISSION© shRNA Lentiviral System (Sigma-Aldrich, St. Louis, Mo.)."}, "LOX": {"biological_target": "T1, LOX (Mus musculus, UniProt P28301)", "T1 construct": "Specific LOX activity was evident on the cell surface of NIH3T3 cells; endogenous in cells; host or cells: NIH 3T3", "T1 sequence (P28301 163-411)": "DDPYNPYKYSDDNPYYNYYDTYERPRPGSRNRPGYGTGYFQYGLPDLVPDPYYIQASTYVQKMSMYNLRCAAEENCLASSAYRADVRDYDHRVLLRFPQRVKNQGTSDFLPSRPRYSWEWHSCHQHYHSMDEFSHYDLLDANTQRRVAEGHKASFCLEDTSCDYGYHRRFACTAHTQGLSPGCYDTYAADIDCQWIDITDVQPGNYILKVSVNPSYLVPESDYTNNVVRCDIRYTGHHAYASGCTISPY", "test": "Surface-associated LOX activity in 3T3 cells (HRP-coupled Amplex Ultra Red assay, 1,5-diaminopentane substrate)", "assay_type": "cell-based", "conditions": "BAPN 1 mM; LOX mAb 15 ug/ml; LOX siRNA 100 nM, day seven after transfection; FIG. 15", "procedure": "Specific LOX activity was evident on the cell surface of NIH3T3 cells. Activity was quantitated with a horseradish peroxidase-coupled fluorescent assay method based on the oxidation of Amplex Ultra Red with a 1,5-diaminopentane substrate. LOX activity was inhibited with the irreversible small molecule inhibitor, BAPN, with a monoclonal antibody raised against a LOX peptide, and with a siRNA oligonucleotide specifically targeting LOX mRNA. (FIG. 15)\nNIH 3T3 cells were transfected with 100 nM of LOX siRNA (Invitrogen Stealth, HSS106117, […] (SEQ ID NO:20)) or non-targeting control. 25 ul of Dharmafect® #3 (Dharmacon) was mixed with 1 ml of OPTIMEM I® (Invitrogen) and sat for 5 minutes at room temperature. 50 ul of 20 uM siRNA was then added, mixed and the transfection mix was incubated at room temperature for 15 minutes. 1 ml of transfection mix was then added to a trypsinized cell suspension in growth media containing 1×10^6 cells and the resulting mixture was plated into a 10 cm^2 culture dish. Six days after transfection, cells were trypsinized and re-plated into 96 well plate format at 50,000 cells/well. […] The plate was read in a Molecular Devices M5 plate reader at 37° C. The plate reader was configured to read fluorescence (ex=544 nm, em=590 nm) in kinetics mode for approximately 2.5 hours."}, "LOXL2": {"tested_on": "LOXL2", "test": "Mode of inhibition of LOXL2", "assay_type": "biochemical", "conditions": "1,5-diaminopentane substrate; FIG. 21", "procedure": "Mode of inhibition of antibodies against LOXL2 was conducted using the model described below. In these experiments, the dependence of the steady state rate on the concentration of 1,5-diaminopentane was monitored under increasing concentrations of antibody. The purpose was to assess whether the Km for substrate, kcat or both change in the presence of antibody. Parameter α describes the effect of the compound on substrate affinity. An α value equal to one describes a situation in which the compound binds equally well the free enzyme and the enzyme-substrate complex (non-competitive inhibition like). Values less than one describe an interaction in which the compound binds the enzyme-substrate complex (uncompetitive inhibition like). Values greater than one correspond to the compound binding the free enzyme better than the enzyme-substrate complex (competitive inhibition like). The β value describes the effect of the modulator on the rate of the enzyme. Inhibitors have values less than one (for a complete inhibitor β=0) and activators have values greater than one. […] The steady state rates were determined from the slope of the fluorescence response as a function of time as described above. Data was plotted as the dependence of steady state rate on the concentration of substrate (1,5-diaminopentane) at several fixed concentrations of antibody and analyzed with GraFit."}}, "data": [{"smiles": "COc1cccc2c1C(=O)c1c(O)c3c(c(O)c1C2=O)C[C@@](O)(C(=O)CO)C[C@@H]3O[C@H]1C[C@H](N)[C@H](O)[C@H](C)O1", "note": "[doxorubicin]", "values": [{"measurement": "decrease of calculated IC50", "setting": "MDA-MB-231; MDA-MB-231 siLOX, siLOXL2 and siLOX/siLOXL2 double knockdown cell lines vs parent cell line (control), FIG. 39A", "value": "27%-55%"}]}, {"smiles": "C#Cc1cccc(Nc2ncnc3cc(OCCOC)c(OCCOC)cc23)c1", "note": "[erlotinib, Erlotinib]", "values": [{"measurement": "reduction in cell viability (calculated IC50 compared to control line)", "setting": "MDA-MB-231; shLOXL2 knockdown cell line (shLOXL2.195) vs sh control, parental MDA-MB-231, FIG. 36", "value": "approximately 7 fold"}]}, {"smiles": "N#CCCN", "note": "[BAPN, β-aminoproprionitrile]", "values": [{"measurement": "surface-associated LOX activity in 3T3 cells", "setting": "LOX", "value": "inhibited"}, {"measurement": "mode of inhibition of LOXL2", "setting": "LOXL2", "value": "competitive inhibitor"}]}, {"smiles": "CN(Cc1cnc2nc(N)nc(N)c2n1)c1ccc(C(=O)N[C@@H](CCC(=O)O)C(=O)O)cc1", "note": "[methotrexate (MTX), methotrexate]", "values": [{"measurement": "reduction in viability", "setting": "MDA-MB-231; MDA-MB-231 shLOX knockdown cell line vs GFP control, FIG. 37", "value": "~2", "unit": "fold"}]}]}
